Legend:
Format in all cases: cell-based, mice
osteoclasts = assay: Bone absorption-inhibitory action in cell co-cultivation system (TRACP activity); set-up: key to Judged Efficacy (TRACP, t-test relative to the control): ⊚: The test substance shows a considerable inhibitory effect (p < 0.01); ◯: The test substance shows an inhibitory effect (p < 0.05); Δ: The test substance shows only slight or no inhibitory effect (there is not observed any significant difference); X: The test substance shows a bone absorption-promoting effect (there is observed a negativesignificant difference); conditions: 10 μM test substance; for Judged Efficacy (TRACP, t-test relative to the control): 2 weeks; for TRACP Act.: co-culture 2 weeks with 10 nM Calcitriol and 100 nM Dexamethasone, control 102.8 ± 12.6
Excerpt: The cell co-culture system used herein means a system in which osteoblasts and hematopoietic cells are subjected to co-culture in the presence of a factor for promoting the formation of osteoclasts and which thus easily permits the analysis of the differentiation process of the osteoclasts (Endocrinology, 1988, 123: 2600-2602). In such a system, osteoclasts are formed and therefore, the degree of osteoclast-formation can be evaluated by the determination of a tartaric acid-resistant acid phosphatase (TRACP) activity in the cell layer as the parameter indicative of the osteoclast.
The test for the confirmation of the bone absorption-inhibitory action of the isoprenoid ester was carried out according to the method disclosed in the literature (Endocrinology, 1988, 123: 2600). The method will be outlined below:
Stroma cells collected from the skull-caps of two-week-old mice according to the method disclosed in the literature (Endocrinology, 1988, 123: 2600) were dispersed in a 10% fetal bovine serum-containing culture base liquid (α-MEM; available from Gibco Company) to a cell density of 5×10^4 cells/mL.
Spleen cells collected from the spleen of 6-week-old ddy male mice according to the method disclosed in the literature (Proc. Natl. Acad. Sci. USA, 1983, 80: 5583) were dispersed in a 10% fetal bovine serum-containing culture base liquid (α-MEM; available from Gibco Company) to a cell density of 5×10^5 cells/mL.
The co-cultivation was carried out in a 5% CO2-containing atmosphere at a temperature of 37° C. using a 10% FBS (fetal bovine serum)-containing culture base liquid (α-MEM; available from Gibco Company). Osteoblast cells were inoculated on a 24-well petri dish at a cell density of 5×10^4 cells/mL/well, spleen cells were then inoculated thereon at a cell density of 5×10^5 cells/mL/well after one day and a solution of a test substance, which had been dissolved in DMSO in a concentration of 10^-2M, was then added to each well in such a manner that the concentration of the test substance was equal to 10 μM. These cells were cultivated in the presence of 10 nM Calcitriol and 100 nM Dexamethasone over 2 weeks while defining the day on which the spleen cells were inoculated as 0th day. In this respect, the culture medium was replaced with fresh one twice a week. After two weeks, the activity of the tartrate-resistant acid phosphatase (hereunder referred to as “TRACP”) in the cell layer was determined, which served as a parameter indicating the number of osteoclasts in the layer.
In the determination of the TRACP activity, there was used a kit of acid phosphatase KII-WAKO (available from WAKO Pure Chemical Co., Ltd.). The culture medium was removed from the Petri dish, 500 μL each of a substrate was added to each well, the resulting cell suspension was heated at 37° C. for 15 minutes, followed by the addition of 500 μL each of a color developing liquid and the determination of the absorbance at a wavelength of 570 nm. The TRACP activity corresponding to each absorbance thus measured was determined using a calibration curve prepared in advance.

MC3T3-E1 cells [1] = assay: Alkaline phosphatase (ALP) activity of osteoblasts in cell culture system; set-up: key to Judged Efficacy (ALP, t-test relative to the control): ⊚: The test substance shows a considerable inhibitory effect (p < 0.01); ◯: The test substance shows an inhibitory effect (p < 0.05); Δ: The test substance shows only slight or no inhibitory effect (there is not observed any significant difference); X: The test substance shows a bone absorption-promoting effect (there is observed a negativesignificant difference); conditions: 2.5 μM; for ALP Act.: cultivation over one week, control 71.6 ± 4.6; for Judged Efficacy (ALP, t-test relative to the control): one week
Excerpt: (§1) In such a system, the osteoblasts are proliferated and the activity of osteoblasts is increased. Therefore, any influence of a substance on the osteoblast-formation can be evaluated by determining, for instance, the rate of cell proliferation and the alkaline phosphatase (ALP) activity as an activity parameter.
(§2) In this Example, there were examined the effects of the chain isoprenoid fatty acid esters on the differentiation and calcium-accumulation of MC3T3-E1 cells or the osteoblasts derived from the skull-caps of mice. A culture medium was added to a 6-well plate in an amount of 2 mL/well, a desired number of MC3T3-E1 cells was inoculated on the medium and the cells were cultivated in a 10% fatal bovine serum-containing base culture liquid (α-MEM, available from Gibco Company) at 37° C. in an atmosphere of 5% CO2. On the day subsequent to the initiation of the cultivation, the culture medium was replaced with the fresh one and simultaneously a solution containing each test sample (the chain isoprenoid fatty acid esters obtained in Preparation Examples 1 to 9) was admixed with and added to the culture medium in an amount of 10 μM for the determination of the cell growth rate and 2.5 μM for the determination of the alkali phosphatase (ALP) activity and the cultivation was continued. The cells for the cell growth rate determination were recovered after 3 days from the initiation of the cultivation and the number of viable cells was counted to determine the cell growth rate. Regarding the other cells, the medium was replaced with fresh one on 5th day of cultivation, the test sample-containing solution was again added and the alkali phosphatase (ALP) activity was determined after the cultivation over one week.
In these experiments, there was used a kit for Alkaline Phospha K-Test WAKO (available from WAKO Pure Chemical Co., Ltd.). A sample used was a suspension of cells obtained by cultivating the same in the presence of each test substance added. A substrate (150 μL) was added to 10 μL of each sample followed by heating at 37° C. for 15 minutes, the addition of 150 μL of a color-developing liquid and determination of the absorbance at 570 nm. The ALP activity corresponding to each absorbance thus measured was determined using a calibration curve prepared in advance.

MC3T3-E1 cells [2] = assay: Cell growth rate of osteoblasts in cell culture system; conditions: 10 μM; for Cell Growth Rate: viable cells after 3 days, relative to control defined as 100
Excerpt: as §1, §2
The cell growth rate was calculated as a value relative to the cell growth rate observed for the control (free of any added test sample), which was defined to be 100.

Row | Molecule | Judged Efficacy (TRACP, t-test relative to the control) (osteoclasts) | TRACP Act. (osteoclasts) | ALP Act. (MC3T3-E1 cells [1]) | Judged Efficacy (ALP, t-test relative to the control) (MC3T3-E1 cells [1]) | Cell Growth Rate (MC3T3-E1 cells [2]) | Effect on proliferation of osteoblasts (in words) (MC3T3-E1 cells [2]; compared with the control)
1 | CCC=CCC=CCC=CCC=CCC=CCCCC(=O)OCCC(C)CCCC(C)CCCC(C)CCCC(C)C (centres unmarked) [Dihydrophytyl Eicosapentaenoate] | ◯ (The test substance shows an inhibitory effect (p < 0.05)) | 83.4 ± 9.4 KA-U/well | 118.7 ± 8.9 KA-U/well | ⊚ (The test substance shows a considerable inhibitory effect (p < 0.01)) | 118.9% | –
2 | Phytyl Eicosapentaenoate | ◯ (The test substance shows an inhibitory effect (p < 0.05)) | 84.2 ± 7.1 KA-U/well | 114.6 ± 7.7 KA-U/well | ⊚ (The test substance shows a considerable inhibitory effect (p < 0.01)) | 123.4% | –
3 | CCCCCCCC/C=C\CCCCCCCC(=O)OC/C=C(\C)CC/C=C(\C)CC/C=C(\C)CCC=C(C)C [Geranyl-geranyl oleate, Geranyl-Geranyl Oleate] | ⊚ (The test substance shows a considerable inhibitory effect (p < 0.01)) | 16.8 ± 3.4 KA-U/well | 82.8 ± 6.7 KA-U/well | ◯ (The test substance shows an inhibitory effect (p < 0.05)) | 108.3% | –
4 | Geranyl-Geranyl Docosahexaenoate | ⊚ (The test substance shows a considerable inhibitory effect (p < 0.01)) | 18.5 ± 5.8 KA-U/well | 89.8 ± 6.1 KA-U/well | ⊚ (The test substance shows a considerable inhibitory effect (p < 0.01)) | 104.8% | –
5 | CC1=C(C/C=C(\C)CCC[C@H](C)CCC[C@H](C)CCCC(C)C)C(=O)c2ccccc2C1=O [Vitamin K1, reference compound] | ◯ (The test substance shows an inhibitory effect (p < 0.05)) | 88.5 ± 8.1 KA-U/well | 76.1 ± 4.9 KA-U/well | Δ | 69.3% | –
6 | Geranyl Eicosapentaenoate | Δ | 87.4 ± 10.3 KA-U/well | 87.2 ± 10.6 KA-U/well | ◯ (The test substance shows an inhibitory effect (p < 0.05)) | 121.4% | –
7 | CC1=CC(=O)c2ccccc2C1=O [Vitamin K3, reference compound] | ◯ (The test substance shows an inhibitory effect (p < 0.05)) | 87.9 ± 10.2 KA-U/well | 91.2 ± 11.0 KA-U/well | ◯ (The test substance shows an inhibitory effect (p < 0.05)) | 0.0% | –
8 | CCCCCCCCCCCCCCCCCC(=O)OC/C=C(\C)CC/C=C(\C)CC/C=C(\C)CCC=C(C)C [Geranyl-geranyl stearate, Geranyl-Geranyl Stearate] | ⊚ (The test substance shows a considerable inhibitory effect (p < 0.01)) | 25.3 ± 5.2 KA-U/well | 80.1 ± 5.2 KA-U/well | ◯ (The test substance shows an inhibitory effect (p < 0.05)) | 102.9% | –
9 | CCCCC/C=C\C/C=C\C/C=C\CCCCC(=O)OC/C=C(\C)CC/C=C(\C)CC/C=C(\C)CCC=C(C)C [Geranyl-Geranyl γ-Linolenate] | ⊚ (The test substance shows a considerable inhibitory effect (p < 0.01)) | 21.7 ± 4.9 KA-U/well | 84.4 ± 5.1 KA-U/well | ⊚ (The test substance shows a considerable inhibitory effect (p < 0.01)) | 111.4% | –
10 | Farnesyl Eicosapentaenoate | Δ | 96.9 ± 12.7 KA-U/well | 85.4 ± 8.4 KA-U/well | ◯ (The test substance shows an inhibitory effect (p < 0.05)) | 115.6% | –
11 | CC(C)=CCC/C(C)=C/CC/C(C)=C/CC/C(C)=C/CC1=C(C)C(=O)c2ccccc2C1=O [Vitamin K2 (MK-4), reference compound] | ⊚ (The test substance shows a considerable inhibitory effect (p < 0.01)) | 20.3 ± 4.1 KA-U/well | 78.6 ± 3.2 KA-U/well | ◯ (The test substance shows an inhibitory effect (p < 0.05)) | 32.4% | reduces the rate of cell proliferation
12 | Geranyl-Geranyl Conjugated Linoleate | – | – | 88.3 ± 4.8 KA-U/well | ⊚ (The test substance shows a considerable inhibitory effect (p < 0.01)) | 120.1% | –

— patent US7579374B2, “Agent for improving bone metabolism” (The Nisshin OilliO Group, Ltd., priority 2001, dated 2009)
